Test results as given in patent US5229395A, “Potential anticancer agents derived from acridine” (Sloan-Kettering Institute For Cancer Research, priority 1991, dated 1993).

System: DNA
Experiment: not given
Conditions: Denny and Wakelin, Cancer Res., 46:1717 (1986); cited from earlier work

**Q.** For `COc1cc(NS(C)(=O)=O)ccc1Nc1c2ccccc2nc2ccccc12` [amsacrin], which “intercalation into DNA” value is on record?
**A.** reversible

System: L1210 cells
Experiment: In vivo antileukemic effect (increased life span) in female BDF1 mice inoculated with L1210 cells
Conditions: 100 mg/kg; mice inoculated with 1.0×10^6 L1210 cells
Method: On the other hand, the corresponding methyl carbamate ester IVc gave good ILS values of 71% and >250% at the dose levels of 100 and 200 mg/kg, respectively.

**Q.** For `CNC(=O)OCc1cccc(Nc2c3ccccc3nc3ccccc23)c1` [IVc, 9-[3'-(Methylaminocarbonyloxymethyl)anilino]acridine], which “ILS (increased life span)” value is on record?
**A.** 71%

Same assay, conditions: 200 mg/kg; mice inoculated with 1.0×10^6 L1210 cells

**Q.** With `CNC(=O)OCc1cccc(Nc2c3ccccc3nc3ccccc23)c1` [IVc, 9-[3'-(Methylaminocarbonyloxymethyl)anilino]acridine] as the compound, how does the “ILS (increased life span)” value read?
**A.** > 250%

Same assay, conditions: 100 and 150 mg/kg dose level; female BDF1 mice inoculated with 1.0×10^6 L1210 cells

**Q.** Which “ILS (increased life span)” value does the source give for `OCc1ccc(Nc2c3ccccc3nc3ccccc23)cc1` [IIIc, 9-(4'-Hydroxymethyl)anilinoacridine] here?
**A.** 29%

System: topoisomerse II
Experiment: not given
Conditions: Nelson et al. 1984; Pommier et al. 1984; cited from earlier work

**Q.** For `COc1cc(NS(C)(=O)=O)ccc1Nc1c2ccccc2nc2ccccc12` [amsacrin], which “DNA cleavage mediated by topoisomerse II” value is on record?
**A.** appears to induce DNA cleavage

System: mouse leukemia L1210 cells
Experiment: Inhibitory activity against growth of mouse leukemia L1210 cells in vitro
Format: cell-based
Conditions: Mus musculus, L1210; quoted in text from Table 6; read-out: IC50 value

**Q.** With `OCc1ccc(Nc2c3ccccc3nc3ccccc23)cc1` [IIIc, 9-(4'-Hydroxymethyl)anilinoacridine] as the compound, how does the IC50 read?
**A.** 95 nM

Same assay, conditions: Table 6, acridine derivatives of formula III, growth of mouse leukemia L1210 cells; read-out: IC50

**Q.** With `OCc1ccccc1Nc1c2ccccc2nc2ccccc12` [IIIa, 9-(2'-Hydroxymethyl)anilinoacridine] as the compound, how does the IC50 read?
**A.** 43000 nM

**Q.** With `OCc1cccc(Nc2c3ccccc3nc3ccccc23)c1` [IIIb, 9-(3'-Hydroxymethyl)anilinoacridine] as the compound, how does the IC50 read?
**A.** 14 nM

**Q.** With `OCc1ccc(Nc2c3ccccc3nc3ccccc23)cc1` [IIIc, 9-(4'-Hydroxymethyl)anilinoacridine] as the compound, how does the IC50 read?
**A.** 95 nM

**Q.** For `OCCc1ccccc1Nc1c2ccccc2nc2ccccc12` [IIId], which IC50 is on record?
**A.** 6500 nM

**Q.** For `OCCc1cccc(Nc2c3ccccc3nc3ccccc23)c1` [IIIe], which IC50 is on record?
**A.** 6.2 nM

**Q.** Which IC50 does the source give for `OCCc1ccc(Nc2c3ccccc3nc3ccccc23)cc1` [IIIf] here?
**A.** 9.9 nM

**Q.** Which IC50 does the source give for `Cc1ccc2nc3ccccc3c(Nc3cccc(CO)c3)c2c1` [IIIg, 9-(3'-Hydroxymethyl)anilino-2-methylacridine] here?
**A.** 850 nM

**Q.** For `Cc1ccc2c(Nc3cccc(CO)c3)c3ccccc3nc2c1` [IIIh, 9-(3'-Hydroxymethyl)anilino-3-methylacridine], which IC50 is on record?
**A.** 0.39 nM

**Q.** For `COc1ccc2nc3ccccc3c(Nc3cccc(CO)c3)c2c1` [IIIi, 9-(3'-Hydroxymethyl)anilino-2-methoxyacridine], which IC50 is on record?
**A.** 3500 nM

**Q.** With `COc1ccc2c(Nc3cccc(CO)c3)c3ccccc3nc2c1` [IIIj, 9-(3'-Hydroxymethyl)anilino-3-methoxyacridine] as the compound, how does the IC50 read?
**A.** 0.063 nM

**Q.** With `COc1ccc2nc3ccc(C)cc3c(Nc3cccc(CO)c3)c2c1` [IIIk, 9-(3'-Hydroxymethyl)anilino-2-methoxy-7-methylacridine] as the compound, how does the IC50 read?
**A.** 5800 nM

**Q.** With `COc1ccc2nc3cc(C)ccc3c(Nc3cccc(CO)c3)c2c1` [IIIl, 9-(3'-Hydroxymethyl)anilino-2-methoxy-6-methylacridine] as the compound, how does the IC50 read?
**A.** 920 nM

**Q.** For `COc1ccc2nc3ccc(OC)cc3c(Nc3cccc(CO)c3)c2c1` [IIIm, 9-(3'-Hydroxymethyl)anilino-2,7-dimethoxyacridine], which IC50 is on record?
**A.** 3400 nM

**Q.** Which IC50 does the source give for `COc1ccc2c(Nc3cccc(CCO)c3)c3ccccc3nc2c1` [IIIn, 9-[3'-(β-hydroxyethyl)anilino]-3-methoxyacridine] here?
**A.** 0.023 nM

**Q.** With `Cc1ccc2nc3ccccc3c(Nc3ccc(CO)cc3)c2c1` [IIIo, 9-(4'-Hydroxymethyl)anilino-2-methylacridine] as the compound, how does the IC50 read?
**A.** 120 nM

**Q.** With `Cc1ccc2c(Nc3ccc(CO)cc3)c3ccccc3nc2c1` [IIIp, 9-(4'-Hydroxymethyl)anilino-3-methylacridine] as the compound, how does the IC50 read?
**A.** 6.7 nM

**Q.** For `COc1ccc2nc3ccccc3c(Nc3ccc(CO)cc3)c2c1` [IIIq, 9-(4'-Hydroxymethyl)anilino-2-methoxyacridine], which IC50 is on record?
**A.** 620 nM

**Q.** Which IC50 does the source give for `COc1ccc2c(Nc3ccc(CO)cc3)c3ccccc3nc2c1` [IIIr, 9-(4'-Hydroxymethyl)anilino-3-methoxyacridine] here?
**A.** 29 nM

**Q.** With `COc1ccc2nc3ccc(C)cc3c(Nc3ccc(CO)cc3)c2c1` [IIIs, 9-(4'-Hydroxymethyl)anilino-2-methoxy-7-methylacridine] as the compound, how does the IC50 read?
**A.** 58 nM

**Q.** With `COc1ccc2nc3cc(C)ccc3c(Nc3ccc(CO)cc3)c2c1` [IIIt, 9-(4'-Hydroxymethyl)anilino-2-methoxy-6-methylacridine] as the compound, how does the IC50 read?
**A.** 650 nM

**Q.** Which IC50 does the source give for `COc1ccc2nc3ccc(OC)cc3c(Nc3ccc(CO)cc3)c2c1` [IIIu, 9-(4'-Hydroxymethyl)anilino-2,7-dimethoxyacridine] here?
**A.** 3400 nM

**Q.** For `COc1ccc2c(Nc3ccc(CCO)cc3)c3ccccc3nc2c1` [IIIv], which IC50 is on record?
**A.** 18 nM

**Q.** With `COc1ccc2nc3ccc(OC)cc3c(Nc3ccc(CCO)cc3)c2c1` [IIIw] as the compound, how does the IC50 read?
**A.** 690 nM

Same assay, conditions: Table 7, carbamate esters of formula IV, mouse L1210 cells in vitro; read-out: IC50

**Q.** For `CNC(=O)OCc1ccccc1Nc1c2ccccc2nc2ccccc12` [IVa, 9-[2'-(Methylaminocarbonyloxymethyl)anilino]acridine], which IC50 is on record?
**A.** 8400 nM

**Q.** For `CC(C)NC(=O)OCc1ccccc1Nc1c2ccccc2nc2ccccc12` [IVb, 9-[2'-(Isopropylaminocarbonyloxymethyl)anilino]acridine], which IC50 is on record?
**A.** 9300 nM

**Q.** Which IC50 does the source give for `CNC(=O)OCc1cccc(Nc2c3ccccc3nc3ccccc23)c1` [IVc, 9-[3'-(Methylaminocarbonyloxymethyl)anilino]acridine] here?
**A.** 4600 nM

**Q.** With `CC(C)NC(=O)OCc1cccc(Nc2c3ccccc3nc3ccccc23)c1` [IVd, 9-[3'-(Isopropylaminocarbonyloxymethyl)anilino]acridine] as the compound, how does the IC50 read?
**A.** 9.1 nM

**Q.** With `CNC(=O)OCc1ccc(Nc2c3ccccc3nc3ccccc23)cc1` [IVe, 9-[4'-(Methylaminocarbonyloxymethyl)anilino]acridine] as the compound, how does the IC50 read?
**A.** 38 nM

**Q.** Which IC50 does the source give for `CC(C)NC(=O)OCc1ccc(Nc2c3ccccc3nc3ccccc23)cc1` [IVf, 9-[4'-(Isopropylaminocarbonyloxymethyl)anilino]acridine] here?
**A.** 18 nM

**Q.** With `CNC(=O)OCCc1cccc(Nc2c3ccccc3nc3ccccc23)c1` [IVg, 9-[3'-(β-Methylaminocarbonyloxyethyl)anilino]acridine] as the compound, how does the IC50 read?
**A.** 5700 nM

**Q.** With `CC(C)NC(=O)OCCc1cccc(Nc2c3ccccc3nc3ccccc23)c1` [IVh, 9-[3'-(β-Isopropylaminocarbonyloxyethyl)anilino]acridine] as the compound, how does the IC50 read?
**A.** 0.91 nM

**Q.** Which IC50 does the source give for `CNC(=O)OCCc1ccc(Nc2c3ccccc3nc3ccccc23)cc1` [IVi, 9-[4'-(β-Methylaminocarbonyloxyethyl)anilino]acridine] here?
**A.** 3.9 nM

**Q.** For `CC(C)NC(=O)OCCc1ccc(Nc2c3ccccc3nc3ccccc23)cc1` [IVj, 9-[4'-(β-Isopropylaminocarbonyloxyethyl)anilino]acridine], which IC50 is on record?
**A.** 48 nM

**Q.** Which IC50 does the source give for `CNC(=O)OCc1cccc(Nc2c3ccccc3nc3cc(OC)ccc23)c1` [IVk, 9-[3'-(Methylaminocarbonyloxymethyl)anilino]-3-methoxyacridine] here?
**A.** 1700 nM

**Q.** For `COc1ccc2c(Nc3cccc(COC(=O)NC(C)C)c3)c3ccccc3nc2c1` [IVl, 9-[3'-(Isopropylaminocarbonyloxymethyl)anilino]-3-methoxyacridine], which IC50 is on record?
**A.** 890 nM

**Q.** With `CNC(=O)OCc1cccc(Nc2c3cc(OC)ccc3nc3ccc(OC)cc23)c1` [IVm, 9-[3'-(Methylaminocarbonyloxymethyl)anilino]-2,7-dimethoxyacridine] as the compound, how does the IC50 read?
**A.** 5000 nM

**Q.** For `COc1ccc2nc3ccc(OC)cc3c(Nc3cccc(COC(=O)NC(C)C)c3)c2c1` [IVn, 9-[3'-(isopropylaminocarbonyloxymethyl)-anilino]-2,7-dimethoxyacridine], which IC50 is on record?
**A.** 4000 nM

**Q.** Which IC50 does the source give for `CNC(=O)OCc1ccc(Nc2c3cc(OC)ccc3nc3ccc(OC)cc23)cc1` [IVo, 9-[4'-(Methylaminocarbonyloxymethyl)anilino]-2,7-dimethoxyacridine] here?
**A.** 3600 nM

**Q.** Which IC50 does the source give for `COc1ccc2nc3ccc(OC)cc3c(Nc3ccc(COC(=O)NC(C)C)cc3)c2c1` [IVp, 9-[4'-(Isopropylaminocarbonyloxymethyl)anilino]-2,7-dimethoxyacridine] here?
**A.** 6600 nM

System: mouse leukemic cells L1210
Experiment: not given
Conditions: earlier work, U.S. Pat. No. 4,966,918; cited from earlier work

**Q.** For `Cc1cc(O)c2c(c1)C(=O)c1cccc(O)c1C2=O` [Compound 1A, chrysophanol], which “activity against mouse leukemic cells L1210 in tissue culture” value (“activity” for short) is on record?
**A.** practically inactive

**Q.** For `Cc1cc(O)c2c(c1)C(=O)c1cc(O)cc(O)c1C2=O` [Compound 1B, emodin], which “activity” value is on record?
**A.** practically inactive

**Q.** Which “activity” value does the source give for `O=C1c2cccc(O)c2C(=O)c2c(O)cc(CN(CCCl)CCCl)cc21` [Compound 3A, 3-[N,N-bis(2-chloroethyl)-amino]methyl-1,8-dihydroxy-9,10-anthraquinone] here?
**A.** potent inhibitory activity

**Q.** Which “activity” value does the source give for `COc1cc(O)c2c(c1)C(=O)c1cc(CN(CCCl)CCCl)cc(O)c1C2=O` [Compound 3B] here?
**A.** potent inhibitory activity
